Laboratory results published in patent US8969584B2, “PIM kinase inhibitors and preparation methods and use in medicinal manufacture thereof” (Jikai Biosciences, Inc., priority 2011, dated 2015).

target: T1, PIM-1 kinase (Homo sapiens, UniProt P11309); assay: PIM Kinase Activity Assay-IMAP Fluorescence Polarization Assay (PIM-1); format: biochemical; conditions: 3 μM concentration
T1 construct: purchased Millipore 14-573
Description: In the present invention, the PIM activities of the compounds were tested by BioDuro (Building E, No. 29 Life Science Park Road, Changping District, Beijing, 102206, P.R. China). The method used for testing is PIM Kinase Activity Assay-IMAP Fluorescence Polarization Assay PIM Kinase Activity Assay-IMAP Fluorescence Polarization Assay 1. Principle PIM kinases are serine/threonine protein kinases, and they can phosphorylate 5-FAM labeled small peptide substrates. Fluorescence polarization is less for non-phosphorylated substrates since that can not bind to the binder (metal binding nanoparticles). On the other hand, fluorescence polarization is more for phosphorylated substrates since that can bind to the binder. The level of 5-FAM labeled small peptide substrates phosphorylation reflects the activities of PIM kinase. By measuring their ability of inhibiting PIM kinase of the compounds of the present invention, their activities of inhibiting PIM kinases can be determined 2. Instrument EnVision (PerkinElmer, Waltham, Mass.) 3. Reagents and 384 well plates PIM1 (Millipore Cat. #14-573) (Millipore Corporation, Billerica, Mass.) PIM2 (Millipore Cat. #14-607) (Millipore Corporation, Billerica, Mass.) 5-FAM labeled peptide (5-FAM-RSRHSSYPAGT, AnaSpec Cat. #63801) (AnaSpec Inc., Fremont, Calif.) IMAP FP Screening Express kit (IMAP FP Screening kit) (Molecular Devices Cat. #R8127) (Molecular Devices, Sunnyvale, Calif.) IMAP Progressive binding reagent IMAP Progressive binding buffer A (5×) IMAP Progressive binding buffer B (5×) 384-well black plate (Corning Cat. #3573) (Corning, Midland Mich.) 4. Assay Buffer
a) 10 mM compound stock solution is diluted to appropriate concentration with 100% DMSO, then diluted 10 fold to targeted concentration with test butter to keep DMSO concentration at 10%
1 ul of compound solution and 4 ul of enzyme (PIM-1 final concentration 0.025 nM, PIM-2 concentration 3 nM) is incubated at 23° C. for 15 min, 2.5 ul ATP (for PIM-1 and PIM-2, the final ATP concentrations are 30 uM and 5 uM respectively) 2.5 ul 5-FAM labeled peptide (final concentration 100 nM) was added to start the reaction. The reaction is run at 23° C. for 60 min DMSO is used in place of compound stock solution as maximum reference and assay buffer is used in place of enzyme as minimum reference. c) add 30 ul IMAP binding reagent (containing 75% IMAP Buffer A, 25% IMAP Buffer B, 1/600 dilution of beads) to stop the reaction, incubated at room temperature for 60 min d) Measure fluorescence polarization, excitation wavelength: 485 nm, emission wavelength 530 nm. 6. Data process IC50 values were calculated using Graphpad Prism®.

T1 sequence (P11309 whole entry): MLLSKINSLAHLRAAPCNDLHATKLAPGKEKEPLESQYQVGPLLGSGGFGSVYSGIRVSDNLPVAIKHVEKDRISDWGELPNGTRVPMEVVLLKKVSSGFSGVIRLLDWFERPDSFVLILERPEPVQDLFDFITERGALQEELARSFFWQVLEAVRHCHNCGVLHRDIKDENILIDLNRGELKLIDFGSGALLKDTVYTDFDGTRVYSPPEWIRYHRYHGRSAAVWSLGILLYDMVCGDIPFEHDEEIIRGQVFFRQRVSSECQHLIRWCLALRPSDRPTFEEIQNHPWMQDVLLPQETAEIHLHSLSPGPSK

Row | SMILES | inhibition at 3 µM
1 | O=C(Nc1cnsc1N1CCc2c(O)cccc2C1)c1cccc(-c2c(F)cccc2F)n1 [Compound 52, 6-(2,6-difluorophenyl)-N-(5-(5-hydroxy-3,4-dihydroisoquinolin-2(1H)-yl)isothiazol-4-yl)picolinamide] | 20 to 50%
2 | O=C(Nc1cnsc1N1CCOCC1)c1csc(C2COc3ccccc3O2)n1 (stereo not shown) [Compound 28, 2-(2,3-dihydrobenzo[b][1,4]dioxin-2-yl)-N-(5-morpholinoisothiazol-4-yl)thiazole-4-carboxamide] | 20 to 50%
3 | O=C(Nc1cnsc1N1CCOCC1)c1csc(C2CCNCC2)n1 [Compound 26, N-(5-morpholinoisothiazol-4-yl)-2-(piperidin-4-yl)thiazole-4-carboxamide] | 20 to 50%
4 | CC(C)(C)OC(=O)N1CCC(c2nc(C(=O)Nc3cnsc3N3CCOCC3)cs2)CC1 [Compound 25, tert-butyl 4-(4-((5-morpholinoisothiazol-4-yl)carbamoyl)thiazol-2-yl)piperidine-1-carboxylate] | 20 to 50%

Next, values leading:

Row | inhibition at 3 µM | SMILES
5 | 20 to 50% | O=C(Nc1cnsc1N1CCNCC1)c1cc(-c2ccccc2F)n[nH]1 [Compound 42, 3-(2-fluorophenyl)-N-(5-(piperazin-1-yl)isothiazol-4-yl)-1H-pyrazole-5-carboxamide]
6 | 20 to 50% | O=C(Nc1cnsc1N1CCNCC1)c1csc(C2COc3ccccc3O2)n1 (stereo not shown) [Compound 40, 2-(2,3-dihydrobenzo[b][1,4]dioxin-2-yl)-N-(5-(piperazin-1-yl)isothiazol-4-yl)thiazole-4-carboxamide]
7 | 20 to 50% | O=C(Nc1cnsc1N1CCNCC1)c1coc(-c2ccccc2)n1 [Compound 43, 2-phenyl-N-(5-(piperazin-1-yl)isothiazol-4-yl)oxazole-4-carboxamide]
8 | 20 to 50% | Cc1cc(C(=O)Nc2cnsc2N2CCNCC2)nn1-c1ccccc1F [Compound 41, 1-(2-fluorophenyl)-5-methyl-N-(5-(piperazin-1-yl)isothiazol-4-yl)-1H-pyrazole-3-carboxamide]
9 | 20 to 50% | CC(=O)Nc1nc(C(=O)Nc2cnsc2N2CCNCC2)cs1 [Compound 39, 2-acetamido-N-(5-(piperazin-1-yl)isothiazol-4-yl)thiazole-4-carboxamide]
10 | 20 to 50% | O=C(Nc1cnsc1N1CCNCC1)c1csc(N2CCOCC2)n1 [Compound 36, 2-morpholino-N-(5-(piperazin-1-yl)isothiazol-4-yl)thiazole-4-carboxamide]
